In patent US9328099B2, “Cyanomethylpyrazole carboxamides as janus kinase inhibitors” (Merck Sharp & Dohme Corp., priority 2011, dated 2016):

How the values were obtained:
[1] = target: JAK1 (Homo sapiens (Human), UniProt P23458); assay: Jak Biochemical HTRF Assay, JAK1; conditions: HTRF biochemical assay, GST-tagged catalytic domain; top concentration tested […]; read-out: JAK1 IC50
Description: (§1) Jak Biochemical HTRF Assay Protocol
(§2) Subsequent reagent additions employed an Agilent Bravo.

[2] = target: JAK2 (Homo sapiens (Human), UniProt O60674); assay: Jak Biochemical HTRF Assay, JAK2; conditions: HTRF biochemical assay, GST-tagged catalytic domain; top concentration tested […]
Description: as §1, §2

JAK2, sequence (O60674 849-1124): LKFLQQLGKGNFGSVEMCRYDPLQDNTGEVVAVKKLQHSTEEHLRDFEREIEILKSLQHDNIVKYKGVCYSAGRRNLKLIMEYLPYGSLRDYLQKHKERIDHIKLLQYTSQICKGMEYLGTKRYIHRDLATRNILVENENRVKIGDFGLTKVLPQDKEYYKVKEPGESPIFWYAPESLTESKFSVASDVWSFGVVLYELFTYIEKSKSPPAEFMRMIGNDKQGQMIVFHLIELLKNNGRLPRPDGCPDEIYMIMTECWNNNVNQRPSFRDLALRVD
JAK1, sequence (P23458 875-1153): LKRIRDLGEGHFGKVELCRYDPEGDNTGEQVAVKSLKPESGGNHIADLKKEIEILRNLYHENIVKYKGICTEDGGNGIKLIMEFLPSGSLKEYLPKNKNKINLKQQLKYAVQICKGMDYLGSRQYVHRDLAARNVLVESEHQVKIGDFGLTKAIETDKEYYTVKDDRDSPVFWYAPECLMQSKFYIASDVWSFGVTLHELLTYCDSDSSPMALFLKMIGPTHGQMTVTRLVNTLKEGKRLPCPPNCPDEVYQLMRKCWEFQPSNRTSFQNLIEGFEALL

Row | IC50 [1] | IC50 [2] | Compound
1 | 8 nM | 318 nM | N#CCC1(n2cc(C(N)=O)c(Nc3ccccc3)n2)CCN(C(=O)OC2CCCCC2)CC1 [Example 30-31, cyclohexyl 4-[4-carbamoyl-3-(phenylamino)-1H-pyrazol-1-yl]-4-(cyanomethyl)piperidine-1-carboxylate]
2 | 4 nM | 88 nM | N#CCC1(n2cc(C(N)=O)c(Nc3ccccc3)n2)CCN(C(=O)OCc2cccc(F)c2)CC1 [Example 30-32, 3-fluorobenzyl 4-[4-carbamoyl-3-(phenylamino)-1H-pyrazol-1-yl]-4-(cyanomethyl)piperidine-1-carboxylate]
3 | 2 nM | 40 nM | N#CCC1(n2cc(C(N)=O)c(Nc3ccccc3)n2)CCN(C(=O)OCc2ccccc2F)CC1 [Example 30-33, 2-fluorobenzyl 4-[4-carbamoyl-3-(phenylamino)-1H-pyrazol-1-yl]-4-(cyanomethyl)piperidine-1-carboxylate]
4 | 3 nM | 83 nM | N#CCC1(n2cc(C(N)=O)c(Nc3ccccc3)n2)CCN(C(=O)OC2Cc3ccccc3C2)CC1 [Example 30-34, 2,3-dihydro-1H-inden-2-yl 4-[4-carbamoyl-3-(phenylamino)-1H-pyrazol-1-yl]-4-(cyanomethyl)piperidine-1-carboxylate]
5 | 4 nM | 71 nM | COCCOC(=O)N1CCC(CC#N)(n2cc(C(N)=O)c(Nc3ccccc3)n2)CC1 [Example 30-35, 2-methoxyethyl 4-[4-carbamoyl-3-(phenylamino)-1H-pyrazol-1-yl]-4-(cyanomethyl)piperidine-1-carboxylate]
6 | 1 nM | 40 nM | N#CCC1(n2cc(C(N)=O)c(Nc3ccccc3)n2)CCN(C(=O)OC2CCOC2)CC1 (centres unmarked) [Example 30-36, 4-carbamoyl-1-[4-(cyanomethyl)-1-{[(3R and 3S)-tetrahydrofuran-3-yloxy]carbonyl}piperidin-4-yl]-3-(phenylamino)-1H-pyrazol-2-ium]
7 | 3 nM | 103 nM | N#CCC1(n2cc(C(N)=O)c(Nc3ccccc3)n2)CCN(C(=O)OC2CCOCC2)CC1 [Example 30-37, tetrahydro-2H-pyran-4-yl 4-[4-carbamoyl-3-(phenylamino)-1H-pyrazol-1-yl]-4-(cyanomethyl)piperidine-1-carboxylate]
8 | 2 nM | 38 nM | N#CCC1(n2cc(C(N)=O)c(Nc3ccccc3)n2)CCN(C(=O)OCc2cccnc2)CC1 [Example 30-39, pyridin-3-ylmethyl 4-[4-carbamoyl-3-(phenylamino)-1H-pyrazol-1-yl]-4-(cyanomethyl)piperidine-1-carboxylate]
9 | 2 nM | 58 nM | N#CCC1(n2cc(C(N)=O)c(Nc3ccccc3)n2)CCN(C(=O)OCc2ccncc2)CC1 [Example 30-40, pyridin-4-ylmethyl 4-[4-carbamoyl-3-(phenylamino)-1H-pyrazol-1-yl]-4-(cyanomethyl)piperidine-1-carboxylate]
10 | 41 nM | 798 nM | CN1CCC(OC(=O)N2CCC(CC#N)(n3cc(C(N)=O)c(Nc4ccccc4)n3)CC2)CC1 [Example 30-42, 1-methylpiperidin-4-yl 4-[4-carbamoyl-3-(phenylamino)-1H-pyrazol-l-yl]-4-(cyanomethyl)piperidine-1-carboxylate]
11 | 12 nM | 318 nM | CN1CCN(CCOC(=O)N2CCC(CC#N)(n3cc(C(N)=O)c(Nc4ccccc4)n3)CC2)CC1 [Example 30-43, 2-(4-methylpiperazin-1-yl)ethyl 4-[4-carbamoyl-3-(phenylamino)-1H-pyrazol-1-yl]-4-(cyanomethyl)piperidine-1-carboxylate]
12 | 11 nM | 318 nM | CN1CCC(COC(=O)N2CCC(CC#N)(n3cc(C(N)=O)c(Nc4ccccc4)n3)CC2)CC1 [Example 30-44, (1-methylpiperidin-4-yl)methyl 4-[4-carbamoyl-3-(phenylamino)-1H-pyrazol-1-yl]-4-(cyanomethyl)piperidine-1-carboxylate]
13 | 3 nM | 97 nM | N#CCC1(n2cc(C(N)=O)c(Nc3ccc(F)cc3)n2)CCN(C(=O)OCCC(F)(F)F)CC1 [Example 30-45, 3,3,3-Trifluoropropyl 4-{4-carbamoyl-3-[(4-fluorophenyl)amino]-1H-pyrazol-1-yl}-4-(cyanomethyl)piperidine-1-carboxylate]
14 | 3 nM | 103 nM | N#CCC1(n2cc(C(N)=O)c(Nc3ccc(F)cc3)n2)CCN(C(=O)OC2CCOCC2)CC1 [Example 30-47, tetrahydro-2H-pyran-4-yl 4-{4-carbamoyl-3-[(4-fluorophenyl)amino]-1H-pyrazol-1-yl}-4-(cyanomethyl)piperidine-1-carboxylate]
15 | 4 nM | 71 nM | COCCOC(=O)N1CCC(CC#N)(n2cc(C(N)=O)c(Nc3ccc(F)cc3)n2)CC1 [Example 30-48, 2-methoxyethyl 4-{4-carbamoyl-3-[(4-fluorophenyl)amino]-1H-pyrazol-1-yl}-4-(cyanomethyl)piperidine-1-carboxylate]
16 | 0.3 nM | 18 nM | N#CCC1(n2cc(C(N)=O)c(Nc3ccnc(F)c3)n2)CCN(C(=O)OCC2CC2)CC1 [Example 30-49, Cyclopropylmethyl 4-{4-carbamoyl-3-[(2-fluoropyridin-4-yl)amino]-1H-pyrazol-1-yl}-4-(cyanomethyl)piperidine-1-carboxylate]

Row | IC50 [1] | IC50 [2] | Compound
17 | 2 nM | 27 nM | N#CCC1(n2cc(C(N)=O)c(Nc3ccccc3)n2)CN(C(=O)OCCF)C1 [Example 30-50, 2-fluoroethyl 3-[4-carbamoyl-3-(phenylamino)-1H-pyrazol-1-yl]-3-(cyanomethyl)azetidine-1-carboxylate]
18 | 14 nM | 298 nM | CC(C)COC(=O)N1CC(CC#N)(n2cc(C(N)=O)c(Nc3ccccc3)n2)C1 [Example 30-51, 2-methylpropyl 3-[4-carbamoyl-3-(phenylamino)-1H-pyrazol-1-yl]-3-(cyanomethyl)azetidine-1-carboxylate]
19 | 3 nM | 76 nM | N#CCC1(n2cc(C(N)=O)c(Nc3ccccc3)n2)CN(C(=O)OC2CCCC2)C1 [Example 30-52, cyclopentyl 3-[4-carbamoyl-3-(phenylamino)-1H-pyrazol-1-yl]-3-(cyanomethyl)azetidine-1-carboxylate]
20 | 11 nM | 262 nM | N#CCC1(n2cc(C(N)=O)c(Nc3ccccc3)n2)CN(C(=O)OCc2ccccc2)C1 [Example 30-53, benzyl 3-[4-carbamoyl-3-(phenylamino)1H-pyrazol-1-yl]-3-(cyanomethyl)azetidine-1-carboxylate]
21 | 74 nM | 491 nM | N#CCC1(n2cc(C(N)=O)c(Nc3ccccc3)n2)CN(C(=O)OCCN2CCOCC2)C1 [Example 30-55, 2-morpholin-4-ylethyl 3-[4-carbamoyl-3-(phenylamino)-1H-pyrazol-1-yl]-3-(cyanomethyl)azetidine-1-carboxylate]
22 | 14 nM | 466 nM | N#CCC1(n2cc(C(N)=O)c(Nc3ccccc3)n2)CN(C(=O)OC2CCCCC2)C1 [Example 30-57, cyclohexyl 3-[4-carbamoyl-3-(phenylamino)-1H-pyrazol-1-yl]-3-(cyanomethyl)azetidine-1-carboxylate]
23 | 15 nM | 336 nM | COCCOC(=O)N1CC(CC#N)(n2cc(C(N)=O)c(Nc3ccccc3)n2)C1 [Example 30-59, 2-methoxyethyl 3-[4-carbamoyl-3-(phenylamino)-1H-pyrazol-1-yl]-3-(cyanomethyl)azetidine-1-carboxylate]
24 | 39 nM | 484 nM | CCOC(=O)COC(=O)N1CC(CC#N)(n2cc(C(N)=O)c(Nc3ccccc3)n2)C1 [Example 30-60, 2-ethoxy-2-oxoethyl 3-[4-carbamoyl-3-(phenylamino)-1H-pyrazol-1-yl]-3-(cyanomethyl)azetidine-1-carboxylate]
25 | 37 nM | 603 nM | COCCCOC(=O)N1CC(CC#N)(n2cc(C(N)=O)c(Nc3ccccc3)n2)C1 [Example 30-61, 3-methoxypropyl 3-[4-carbamoyl-3-(phenylamino)-1H-pyrazol-1-yl]-3-(cyanomethyl)azetidine-1-carboxylate]
26 | 5 nM | 102 nM | N#CCC1(n2cc(C(N)=O)c(Nc3ccccc3)n2)CN(C(=O)OC2CCOC2)C1 (centres unmarked) [Example 30-62, tetrahydrofuran-3-yl 3-[4-carbamoyl-3-(phenylamino)-1H-pyrazol-1-yl]-3-(cyanomethyl)azetidine-1-carboxylate]
27 | 188 nM | 1480 nM | N#CCC1(n2cc(C(N)=O)c(Nc3ccccc3)n2)CN(C(=O)OCCN2CCCC2=O)C1 [Example 30-64, 2-(2-oxopyrrolidin-1-yl)ethyl 3-[4-carbamoyl-3-(phenylamino)-1H-pyrazol-1-yl]-3-(cyanomethyl)azetidine-1-carboxylate]
28 | 12 nM | 271 nM | N#CCC1(n2cc(C(N)=O)c(Nc3ccccc3)n2)CN(C(=O)OCc2cccnc2)C1 [Example 30-65, pyridin-3-ylmethyl 3-[4-carbamoyl-3-(phenylamino)-1H-pyrazol-1-yl]-3-(cyanomethyl)azetidine-1-carboxylate]
29 | 19 nM | 353 nM | N#CCC1(n2cc(C(N)=O)c(Nc3ccccc3)n2)CN(C(=O)OCc2ccncc2)C1 [Example 30-66, pyridin-4-ylmethyl 3-[4-carbamoyl-3-(phenylamino)-1H-pyrazol-1-yl]-3-(cyanomethyl)azetidine-1-carboxylate]
30 | 108 nM | 849 nM | N#CCC1(n2cc(C(N)=O)c(Nc3ccccc3)n2)CN(C(=O)OCCc2ccccn2)C1 [Example 30-67, 2-pyridin-2-ylethyl 3-[4-carbamoyl-3-(phenylamino)-1H-pyrazol-1-yl]-3-(cyanomethyl)azetidine-1-carboxylate]
31 | 45 nM | 445 nM | N#CCC1(n2cc(C(N)=O)c(Nc3ccccc3)n2)CN(C(=O)OCCCc2cccnc2)C1 [Example 30-68, 3-pyridin-3-ylpropyl 3-[4-carbamoyl-3-(phenylamino)-1H-pyrazol-1-yl]-3-(cyanomethyl)azetidine-1-carboxylate]
